# Where two headings read alike, the source gives them in different places. Where no end group is shown, it is not given here.
# Assays:
# [1] = tested on: human adipose-derived mesenchymal stem cells (AD-MSC)
# Experimental: (§1) The aim was to analyze the cytotoxicity caused by the addition of Peptide-1 or Peptide-2 to human adipose-derived mesenchymal stem cells (AD-MSC) using the CCK-8 assay.
# (§2) Specifically, AD-MSC cells were seeded in 96-well plates at a density of 1.5×10^3 cells/well and cultured in Dulbecco's Modified Eagle's Medium (DMEM) supplemented with 10% FBS for 24 hours. Then, the medium was replaced with DMEM medium supplemented with 5% FBS, and Peptide-1 or Peptide-2 was treated at different concentrations, respectively. Subsequently, the medium was replaced every 3 days and Peptide-1 or Peptide-2 was treated at different concentrations, respectively. To confirm CCK-8 activity, after 7 days, CCK-8 (Dojindo, CCK-8 kit) solution was added at 1/10 volume of the culture medium, and incubated for 2 hours. The culture medium was sampled and CCK-8 activity was confirmed at a wavelength of 450 nm using a microplate reader.
# [2] = tested on: human adipose-derived mesenchymal stem cells (AD-MSC); assay: CCK-8 cytotoxicity assay in AD-MSC cells; conditions: different concentrations, 7 days, absorbance 450 nm, FIG. 1, FIG. 2
# Experimental: as §1, §2
sequence,measurement,setting,value
"QSSLRALR [Peptide-2, QSSLRALR]",toxicity toward adipose-derived mesenchymal stem cells (CCK-8 activity),[1],did not exhibit toxicity
"SHIAGGLSFHSTV [Peptide-1, SHIAGGLSFHSTV]",toxicity toward adipose-derived mesenchymal stem cells (CCK-8 activity),[2],did not exhibit toxicity
